Source: publication PMC5788402, “Impact of Target Warhead and Linkage Vector on Inducing Protein Degradation: Comparison of Bromodomain and Extra-Terminal (BET) Degraders Derived from Triazolodiazepine (JQ1) and Tetrahydroquinoline (I-BET726) BET Inhibitor Scaffolds” (Journal of Medicinal Chemistry, 2017)

Tests used:
[1] = target: VHL-EloC-EloB protein (VCB) (Homo sapiens, UniProt P40337); experiment: ITC binary titration, VCB into PROTAC; type: binding; details: VCB in syringe, PROTAC in cell
[2] = test system: BET proteins Brd2, Brd3, Brd4; experiment: BET degradation profile in HeLa cells; type: cell-based
[3] = target: VCB / Brd4^BD2 ternary complex (Homo sapiens, UniProt O60885+P40337); experiment: ITC ternary titration, VCB into Brd4^BD2–PROTAC complex; type: binding; details: for α: cooperativity, ratio between binary and ternary Kd; for α / ΔpKd ± uncertainty: Brd4^BD2; for cooperativity (α) Brd4–BD2: ternary complex formation with VCB and Brd4^BD2, as tabulated in Table 2; for ΔpKd ± uncertainty: ternary vs binary
Brd4^BD2 = Brd4^BD2 (Homo sapiens, UniProt O60885); experiment: ITC binary titration, Brd4^BD2 into PROTAC; type: binding; details: Brd4^BD2 in syringe, PROTAC in cell
Brd3BD1 = Brd3BD1 (Homo sapiens, UniProt Q15059); experiment: ITC binary titration, Brd3BD1 into 10; type: binding; details: Brd3BD1 in syringe
Chain of Brd3BD1 (Q15059 34-140 limits assumed): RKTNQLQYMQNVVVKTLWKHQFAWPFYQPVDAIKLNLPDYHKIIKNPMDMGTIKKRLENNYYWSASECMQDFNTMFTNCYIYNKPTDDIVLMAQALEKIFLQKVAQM
From the text: (§1) Bromodomain and VCB complex constructs and protein preparation were described in a previous publication.[5] Wild-type version of human proteins VHL (UniProt accession number P40337), ElonginC (Q15369), ElonginB (Q15370), and the bromodomains of Brd2 (P25440), Brd3 (Q15059), and Brd4 (O60885) were used for all protein expression. In brief, the His6-tagged constructs were transformed into E. coli BL21(DE3) and induced with IPTG to produce the desired proteins. […] After cleaving the His-tag by TEV protease, a second Ni affinity column purification was performed to obtain tag-free protein in the flow-through. VCB was then additionally purified by anion exchange using MonoQ (GE Healthcare). For all proteins, purity was further polished by gel filtration chromatography.
(§2) Titrations were performed on an ITC200 microcalorimeter (GE Healthcare) as previously reported.[5] The titrations were in ITC buffer (20 mM Bis-Tris propane, 150 mM NaCl, 1 mM tris(2-carboxyethyl)phosphine (TCEP), pH 7.4), supplemented with either 0.2% or 3% DMSO and consisted of 19 injections of 2 μL of protein solution at a rate of 0.5 μL/s at 120 s time intervals. An initial injection of protein (0.4 μL) was made and discarded during data analysis. All experiments were performed at 25 °C, while stirring at 600 rpm. PROTACs were diluted from a 10 mM DMSO stock solution to 20 μM in ITC buffer with the final concentration of DMSO to be 0.2% for triazolodiazepine-based PROTAC or 3% for tetrahydroquinoline-based PROTAC. Bromodomain protein in the same buffer was titrated into the PROTAC in the cell. At the end of the titration, the excess of solution was removed from the cell, the syringe was washed and dried, and VCB complex (168 μM, in the same buffer) was loaded in the syringe and titrated into the complex of PROTAC–bromodomain. The concentration of the complex in the cell (C) after the first titration (16.8 μM) was calculated as follows: [drawing 1] where C0 is the initial concentration of the PROTAC in the cell (20 μM), Vcell is the volume of the sample cell (200.12 μL), and Vinj is the volume of titrant injected during the first titration (38.4 μL). Titrations for the binary complex PROTAC–VCB were performed in the same manner with VCB titrated into 16.8 μM PROTAC in the cell. […] The data were fitted to a single-binding-site model to obtain the stoichiometry n, the dissociation constant Kd, and the enthalpy of binding ΔH using the Microcal LLC ITC200 Origin software provided by the manufacturer.
(§3) Table S1. ITC results for the formation of binary and ternary complexes between 10, BET Bromodomain and VCB
(§4) Protein in Species in cell Kd (nM) ΔG (kcal × ΔH (kcal × -TΔS (kcal N α ΔpKd
(§5) Syringe mol-1) mol-1) × mol-1)
(§6) Titrations were performed at 25°C in duplicate except for VCB into 10, which was performed in quadruplicate.
(§7) Values reported are the mean ± s.e.m.

Brd4BD1 = Brd4BD1 (Homo sapiens, UniProt O60885); experiment: ITC binary titration, Brd4BD1 into 10; type: binding; details: Brd4BD1 in syringe
From the text: as §1, §2, §3, §4, §5, §6, §7

Brd2BD2 = Brd2BD2 (Homo sapiens, UniProt P25440); experiment: ITC binary titration, Brd2BD2 into 10; type: binding; details: Brd2BD2 in syringe
Chain of Brd2BD2 (P25440 344-453 limits assumed): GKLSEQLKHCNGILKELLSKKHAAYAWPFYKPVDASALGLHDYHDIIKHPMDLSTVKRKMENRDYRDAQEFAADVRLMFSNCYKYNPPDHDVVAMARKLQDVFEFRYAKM
From the text: as §1, §2, §3, §4, §5, §6, §7

[4] = target: VCB / Brd2BD1 ternary complex (Homo sapiens, UniProt P25440+P40337); experiment: ITC ternary titration, VCB into Brd2BD1:10; type: binding
From the text: as §1, §2, §3, §4, §5, §6, §7

[5] = target: VCB / Brd3BD2 ternary complex (Homo sapiens, UniProt P40337+Q15059); experiment: ITC ternary titration, VCB into Brd3BD2:10; type: binding
From the text: as §1, §2, §3, §4, §5, §6, §7

[6] = target: VCB / Brd3BD1 ternary complex (Homo sapiens, UniProt P40337+Q15059); experiment: ITC ternary titration, VCB into Brd3BD1:10; type: binding
From the text: as §1, §2, §3, §4, §5, §6, §7

Brd3BD2 = Brd3BD2 (Homo sapiens, UniProt Q15059); experiment: ITC binary titration, Brd3BD2 into 10; type: binding; details: Brd3BD2 in syringe
Chain of Brd3BD2 (Q15059 306-415 limits assumed): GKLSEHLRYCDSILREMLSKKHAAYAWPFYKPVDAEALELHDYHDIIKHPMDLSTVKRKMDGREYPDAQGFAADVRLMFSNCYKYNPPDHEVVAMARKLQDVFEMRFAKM
From the text: as §1, §2, §3, §4, §5, §6, §7

[7] = target: VCB / Brd2BD2 ternary complex (Homo sapiens, UniProt P25440+P40337); experiment: ITC ternary titration, VCB into Brd2BD2:10; type: binding
From the text: as §1, §2, §3, §4, §5, §6, §7

[8] = target: VCB / Brd4BD1 ternary complex (Homo sapiens, UniProt O60885+P40337); experiment: ITC ternary titration, VCB into Brd4BD1:10; type: binding
From the text: as §1, §2, §3, §4, §5, §6, §7

Brd2BD1 = Brd2BD1 (Homo sapiens, UniProt P25440); experiment: ITC binary titration, Brd2BD1 into 10; type: binding; details: Brd2BD1 in syringe
Chain of Brd2BD1 (P25440 74-180 limits assumed): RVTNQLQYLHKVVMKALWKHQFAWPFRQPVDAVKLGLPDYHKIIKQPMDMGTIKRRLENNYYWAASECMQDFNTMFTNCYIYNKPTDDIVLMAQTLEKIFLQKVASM
From the text: as §1, §2, §3, §4, §5, §6, §7

[9] = ternary, VCB in syringe, Brd4^BD2–PROTAC in cell

CC(=O)N1c2ccc(-c3ccc(C(=O)NCCOCCOCCOCC(=O)N[C@H](C(=O)N4C[C@H](O)C[C@H]4C(=O)NCc4ccc(-c5scnc5C)cc4)C(C)(C)C)cc3)cc2[C@H](Nc2ccc(Cl)cc2)C[C@@H]1C [compound 9, (2S,4R)-1-((S)-1-(4-((2S,4R)-1-Acetyl-4-((4-chlorophenyl)amino)-2-methyl-1,2,3,4-tetrahydroquinolin-6-yl)phenyl)-15-(tert-butyl)-1,13-dioxo-5,8,11-trioxa-2,14-diazahexadecan-16-oyl)-4-hydroxy-N-(4-(4-methylthiazol-5-yl)benzyl)pyrrolidine-2-carboxamide]
stoichiometry N [1]: 0.96 ± 0.01
ΔG [1]: –9.52 ± 0.13 kcal·mol^–1
ΔH [1]: –6.18 ± 0.12 kcal·mol^–1
–TΔS [1]: –3.34 ± 0.18 kcal·mol^–1
concentration with increased levels of BET proteins (hook effect) ([2]; 24 h): 1 to 10 µM
α [3]: 0.5
cooperativity (α) Brd4–BD2 [3]: 0.46
ΔpKd ± uncertainty [3]: –0.34 ± 0.12
stoichiometry N [3, 9]: 1.44 ± 0.02
ΔG [3, 9]: –9.06 ± 0.09 kcal·mol^–1
ΔH [3, 9]: –6.90 ± 0.11 kcal·mol^–1
–TΔS [3, 9]: –2.16 ± 0.14 kcal·mol^–1
stoichiometry N (Brd4^BD2): 1.15 ± 0.01
ΔG (Brd4^BD2): –11.5 ± 0.3 kcal·mol^–1
ΔH (Brd4^BD2): –9.74 ± 0.10 kcal·mol^–1
–TΔS (Brd4^BD2): –1.73 ± 0.30 kcal·mol^–1

CC(=O)N1c2ccc(-c3ccc(C(=O)NCCOCCOCCOCCOCC(=O)N[C@H](C(=O)N4C[C@H](O)C[C@H]4C(=O)NCc4ccc(-c5scnc5C)cc4)C(C)(C)C)cc3)cc2[C@H](Nc2ccc(Cl)cc2)C[C@@H]1C [compound 10, (2S,4R)-1-((S)-1-(4-((2S,4R)-1-Acetyl-4-((4-chlorophenyl)amino)-2-methyl-1,2,3,4-tetrahydroquinolin-6-yl)phenyl)-18-(tert-butyl)-1,16-dioxo-5,8,11,14-tetraoxa-2,17-diazanonadecan-19-oyl)-4-hydroxy-N-(4-(4-methylthiazol-5-yl)benzyl)pyrrolidine-2-carboxamide]
-TΔS (Brd3BD1): 3.2 ± 0.2 kcal/mol
N (Brd3BD1): 0.98 ±0.04
ΔG (Brd3BD1): -10.1 ± 0.1 kcal/mol
ΔH (Brd3BD1): -13.3 ± 0.4 kcal/mol
Kd (Brd3BD1; 10 in cell, 25°C): 39 ± 8 nM
-TΔS (Brd4BD1): 1.6 ± 0.7 kcal/mol
N (Brd4BD1): 0.73 ±0.02
ΔG (Brd4BD1): -10.3 ± 0.4 kcal/mol
ΔH (Brd4BD1): -11.9 ± 0.3 kcal/mol
Kd (Brd4BD1; 10 in cell, 25°C): 39 ± 24 nM
-TΔS (Brd2BD2): -1.19 ± 0.07 kcal/mol
N (Brd2BD2): 0.84 ±0.05
ΔG (Brd2BD2): -11.3 ± 0.01 kcal/mol
ΔH (Brd2BD2): -10.1 ± 0.1 kcal/mol
Kd (Brd2BD2; 10 in cell, 25°C): 5 ± 0.1 nM
α ([4]; cooperativity, Brd2BD1): 0.3
ΔpKd ([4]; ternary vs binary, Brd2BD1): 0.41 ±0.23
-TΔS ([4]; ternary, VCB into Brd2BD1:10): -4.19 ± 0.92 kcal/mol
N ([4]; ternary, VCB into Brd2BD1:10): 0.99 ±0.08
ΔG ([4]; ternary, VCB into Brd2BD1:10): -8.95 ± 0.31 kcal/mol
ΔH ([4]; ternary, VCB into Brd2BD1:10): -4.76 ± 0.62 kcal/mol
α ([5]; cooperativity, Brd3BD2): 0.3
ΔpKd ([5]; ternary vs binary, Brd3BD2): 0.58 ±0.14
Kd ([5]; ternary, VCB in syringe, Brd3BD2:10 in cell, 25°C): 434 ± 128 nM
-TΔS ([5]; ternary, VCB into Brd3BD2:10): -1.37 ± 0.54 kcal/mol
N ([5]; ternary, VCB into Brd3BD2:10): 1.03 ±0.15
ΔG ([5]; ternary, VCB into Brd3BD2:10): -8.71 ± 0.18 kcal/mol
ΔH ([5]; ternary, VCB into Brd3BD2:10): -7.33 ± 0.36 kcal/mol
α ([6]; cooperativity, Brd3BD1): 0.7
ΔpKd ([6]; ternary vs binary, Brd3BD1): 0.14 ±0.09
Kd ([6]; ternary, VCB in syringe, Brd3BD1:10 in cell, 25°C): 152 ± 30 nM
-TΔS ([6]; ternary, VCB into Brd3BD1:10): -5.18 ± 0.14 kcal/mol
N ([6]; ternary, VCB into Brd3BD1:10): 1.03 ±0.18
ΔG ([6]; ternary, VCB into Brd3BD1:10): -9.31 ± 0.12 kcal/mol
ΔH ([6]; ternary, VCB into Brd3BD1:10): -4.13 ± 0.02 kcal/mol
-TΔS (Brd3BD2): 3.0 ± 0.1 kcal/mol
N (Brd3BD2): 1.02 ±0.09
ΔG (Brd3BD2): -10.9 ± 0.3 kcal/mol
ΔH (Brd3BD2): -13.9 ± 0.4 kcal/mol
Kd (Brd3BD2; 10 in cell, 25°C): 11 ± 5 nM
α ([7]; cooperativity, Brd2BD2): 0.3
ΔpKd ([7]; ternary vs binary, Brd2BD2): 0.52 ±0.17
Kd ([7]; ternary, VCB in syringe, Brd2BD2:10 in cell, 25°C): 384 ± 145 nM
-TΔS ([7]; ternary, VCB into Brd2BD2:10): -1.02 ± 0.61 kcal/mol
N ([7]; ternary, VCB into Brd2BD2:10): 0.73 ±0.02
ΔG ([7]; ternary, VCB into Brd2BD2:10): -8.80 ± 0.23 kcal/mol
ΔH ([7]; ternary, VCB into Brd2BD2:10): -7.77 ± 0.37 kcal/mol
stoichiometry N [1]: 0.92 ± 0.15
window of concentration for selective degradation of BRD3/4 [2]: 30 to 100 nM
concentration with increased levels of BET proteins (hook effect) ([2]; 24 h): 1 to 10 µM
intra-BET degradation selectivity ([2]; 24 h): depletion selectivity for Brd4 and Brd3 over Brd2
α [3]: 0.6
cooperativity (α) Brd4–BD2 [3]: 0.59
ΔpKd ± uncertainty [3]: –0.22 ± 0.08
stoichiometry N [3, 9]: 0.87 ± 0.02
α ([8]; cooperativity, Brd4BD1): 0.5
ΔpKd ([8]; ternary vs binary, Brd4BD1): 0.29 ±0.14
Kd ([8]; ternary, VCB in syringe, Brd4BD1:10 in cell, 25°C): 221 ± 65 nM
-TΔS ([8]; ternary, VCB into Brd4BD1:10): -6.63 ± 0.09 kcal/mol
N ([8]; ternary, VCB into Brd4BD1:10): 0.70 ±0.07
ΔG ([8]; ternary, VCB into Brd4BD1:10): -9.11 ± 0.18 kcal/mol
ΔH ([8]; ternary, VCB into Brd4BD1:10): -2.47 ± 0.09 kcal/mol
-TΔS (Brd2BD1): 1.86 ± 0.02 kcal/mol
N (Brd2BD1): 1.00 ±0.08
ΔG (Brd2BD1): -10.0 ± 0.2 kcal/mol
ΔH (Brd2BD1): -11.9 ± 0.2 kcal/mol
Kd (Brd2BD1; 10 in cell, 25°C): 45 ± 13 nM
stoichiometry N (Brd4^BD2): 0.86 ± 0.06
